These results are taken from ChEMBL document CHEMBL1201862, “PubChem BioAssay data set” (2004).

Holding throughout (assay): NCI tumour cell line growth inhibition, 48 h
Experiment [1] has as its system HT-29.
Experiment [2] concerns HL-60.
Experiment [3] relates to M14.
Experiment [4] has as its system NCI-H522.
Experiment [5] concerns UO-31.
The subject of experiment [6] is HCC 2998.
In experiment [7] the test system is 786-0.
The subject of experiment [8] is NCI-H226.
The test system of experiment [9] is OVCAR-5.
In experiment [10] the test system is OVCAR-4.
In experiment [11] the test system is DMS-114.
The test system of experiment [12] is NCI-H460.
Experiment [13] concerns SF-268.
Experiment [14] relates to HCT-15.
For experiment [15], the system named is OVCAR-3.
The test system of experiment [16] is OVCAR-8.
For experiment [17], the system named is UACC-62.
Experiment [18] concerns U-251.
The subject of experiment [19] is SR.

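Grown in 96-well plates, cells were treated for 48 hours with each compound at five concentrations. Insufficient inhibition: endpoint recorded as highest concentration tested. At the GI50, growth is halved.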 Activity calls are given as the source filed them. Rule as the data show it: active = GI50 up to about 1.1 µM and inactive = higher.

As to `COc1cccc(C2=NC(C(C)C)CO2)c1OC` (configuration not stated), the GI50 in [1], in experiment [2], in [3], in experiment [4], in experiment [5] and in [6] was > 100 µM (inactive) each time. In addition, the GI50 in [7], in [8], in [9], in experiment [10], in experiment [11] and in experiment [12] was > 100 µM (inactive) each time. Further, the GI50 is > 100 µM (inactive) in [13]; over 100 µM in experiment [14]; > 100 µM (inactive) in [15]; > 100 µM (inactive) in experiment [16]; > 100 µM (inactive) in [17].

Turning to `CC(C)C(NCc1c2ccccc2[n+]([O-])c2ccccc12)C(=O)O` (configuration not stated), the GI50 is 38.1 µM (inactive) in experiment [18]; 20 µM (inactive) in experiment [1]; 30.3 µM (inactive) in experiment [2]; > 100 µM (inactive) in experiment [3]; 34.5 µM (inactive) in experiment [4]; 26.7 µM (inactive) in experiment [5]. Further, the GI50 in [6] was > 100 µM (inactive); in experiment [7], 54.7 µM (inactive); in experiment [8] it was 35.4 µM (inactive); in experiment [9], > 100 µM (inactive); in experiment [10], 41.1 µM (inactive); in [11], 29.6 µM (inactive). Also, the GI50 in experiment [12] was 68.9 µM (inactive); in experiment [13] it was 32.2 µM (inactive); in [14], 31 µM; in experiment [15], 93.1 µM (inactive); in experiment [16], 70 µM (inactive); in [17], 56.6 µM (inactive).

With `COc1cc([C@@H]2OC(=O)C3C2C(=O)O[C@H]3c2ccc(O)c(OC)c2)ccc1O` (some centres not stated), the GI50 in experiment [18], in [1], in [3], in [5], in experiment [6] and in experiment [7] was > 100 µM (inactive) in each case. Moreover, the GI50 in experiment [8], in [9], in [19], in experiment [10], in [11] and in experiment [12] was > 100 µM (inactive) in each case. The GI50 is > 100 µM (inactive) in experiment [13]; over 100 µM in experiment [14]; > 100 µM (inactive) in [15]; > 100 µM (inactive) in experiment [16]; > 100 µM (inactive) in [17].

In the case of `CN(/N=C/c1ccnc2ccccc12)c1c([N+](=O)[O-])cc([N+](=O)[O-])cc1[N+](=O)[O-]`, the GI50 was 88.3 µM (inactive) in experiment [18]; > 100 µM (inactive) in experiment [1]; 22.4 µM (inactive) in experiment [2]; 43.3 µM (inactive) in experiment [3]; 27.6 µM (inactive) in experiment [4]; 26.7 µM (inactive) in experiment [5]. Moreover, the GI50 is > 100 µM (inactive) in experiment [6]; > 100 µM (inactive) in [7]; 71.4 µM (inactive) in [8]; > 100 µM (inactive) in experiment [9]; 53.7 µM (inactive) in experiment [10]; 37.9 µM (inactive) in [11]. In addition, the GI50 in experiment [12] is > 100 µM (inactive); in experiment [13], 61.2 µM (inactive); in experiment [14] it was 44.5 µM; in experiment [15], 41.6 µM (inactive); in experiment [16] it was 98.2 µM (inactive); in [17] it was > 100 µM (inactive).

Consider `C[C@]12CCc3nonc3C1CC[C@@H]1C2CC[C@@]2(C)C1CC[C@@H]2O` (some centres not stated), for which the GI50 in [18], in experiment [1], in experiment [2], in experiment [3], in experiment [4] and in [5] was > 100 µM (inactive) each time. Also, the GI50 in [6], in experiment [7], in [8], in experiment [9], in experiment [10] and in experiment [11] was > 100 µM (inactive) in each case. The GI50 in [12] was > 100 µM (inactive); in [13], > 100 µM (inactive); in experiment [14] it was over 100 µM; in [15], > 100 µM (inactive); in experiment [16], > 100 µM (inactive); in experiment [17], > 100 µM (inactive).

For `FC(F)(F)c1nc(Br)[nH]c1C(F)(F)F`, the GI50 in [18] is 67.5 µM (inactive); in [1], > 100 µM (inactive); in experiment [2], > 100 µM (inactive); in experiment [3], > 100 µM (inactive); in [5], > 100 µM (inactive); in experiment [6], 49.9 µM (inactive). Also, the GI50 in experiment [7] was > 100 µM (inactive); in experiment [8] it was 51.9 µM (inactive); in experiment [9], > 100 µM (inactive); in experiment [19], 35.6 µM (inactive); in experiment [10] it was > 100 µM (inactive); in experiment [11], 40.2 µM (inactive). For the same compound, the GI50 was > 100 µM (inactive) in experiment [12]; > 100 µM (inactive) in [13]; over 100 µM in experiment [14]; 60.4 µM (inactive) in experiment [15]; > 100 µM (inactive) in experiment [16]; 37.6 µM (inactive) in [17].

Regarding `COC(=O)/C=C(C)/C=C/c1cc(C(C)=O)c(C)o1`, the GI50 in experiment [18] is > 100 µM (inactive); in [1], > 100 µM (inactive); in experiment [2] it was > 100 µM (inactive); in experiment [3], > 100 µM (inactive); in experiment [4], > 100 µM (inactive); in experiment [5] it was 86.9 µM (inactive). Moreover, the GI50 in experiment [6] is > 100 µM (inactive); in experiment [7], > 100 µM (inactive); in experiment [9] it was 78.7 µM (inactive); in experiment [19], > 100 µM (inactive); in experiment [10], 94.2 µM (inactive); in [11], 93.3 µM (inactive). For the same compound, the GI50 is > 100 µM (inactive) in experiment [12]; > 100 µM (inactive) in experiment [13]; over 100 µM in experiment [14]; > 100 µM (inactive) in experiment [15]; > 100 µM (inactive) in experiment [16]; 82 µM (inactive) in experiment [17].

Consider `C/C(COc1ccccc1)=N\NC(N)=S`, for which the GI50 is > 100 µM (inactive) in [18]; 61.9 µM (inactive) in experiment [1]; > 100 µM (inactive) in experiment [2]; > 100 µM (inactive) in [3]; > 100 µM (inactive) in [5]; > 100 µM (inactive) in experiment [6]. The GI50 is > 100 µM (inactive) in experiment [7]; > 100 µM (inactive) in experiment [8]; > 100 µM (inactive) in experiment [9]; > 100 µM (inactive) in experiment [19]; > 100 µM (inactive) in experiment [10]; 62.7 µM (inactive) in experiment [11]. Further, the GI50 in [12] was > 10 µM (inactive); in [13], > 100 µM (inactive); in experiment [14] it was over 100 µM; in [15], > 100 µM (inactive); in experiment [16] it was > 100 µM (inactive); in experiment [17], > 100 µM (inactive).
